According to US20100292231A1, “Indazole Compounds for Treating Inflammatory Disorders, Demyelinating Disorders and Cancers” (priority 2007, published 2010):
Where a chain is given by its changes, count along the chain named.

What was measured:
Assay in all cases: MTS cellular proliferation assay
Assay type in all cases: cell-based
BaF3-D835Y = target: T1, BaF3-D835Y (Homo sapiens, UniProt P36888, D835Y, cells depend on it); settings: 72 hour incubation, read-out: Growth inhibitory activity (in vivo EC50 nM)
T1 sequence (P36888 1-993 D835Y): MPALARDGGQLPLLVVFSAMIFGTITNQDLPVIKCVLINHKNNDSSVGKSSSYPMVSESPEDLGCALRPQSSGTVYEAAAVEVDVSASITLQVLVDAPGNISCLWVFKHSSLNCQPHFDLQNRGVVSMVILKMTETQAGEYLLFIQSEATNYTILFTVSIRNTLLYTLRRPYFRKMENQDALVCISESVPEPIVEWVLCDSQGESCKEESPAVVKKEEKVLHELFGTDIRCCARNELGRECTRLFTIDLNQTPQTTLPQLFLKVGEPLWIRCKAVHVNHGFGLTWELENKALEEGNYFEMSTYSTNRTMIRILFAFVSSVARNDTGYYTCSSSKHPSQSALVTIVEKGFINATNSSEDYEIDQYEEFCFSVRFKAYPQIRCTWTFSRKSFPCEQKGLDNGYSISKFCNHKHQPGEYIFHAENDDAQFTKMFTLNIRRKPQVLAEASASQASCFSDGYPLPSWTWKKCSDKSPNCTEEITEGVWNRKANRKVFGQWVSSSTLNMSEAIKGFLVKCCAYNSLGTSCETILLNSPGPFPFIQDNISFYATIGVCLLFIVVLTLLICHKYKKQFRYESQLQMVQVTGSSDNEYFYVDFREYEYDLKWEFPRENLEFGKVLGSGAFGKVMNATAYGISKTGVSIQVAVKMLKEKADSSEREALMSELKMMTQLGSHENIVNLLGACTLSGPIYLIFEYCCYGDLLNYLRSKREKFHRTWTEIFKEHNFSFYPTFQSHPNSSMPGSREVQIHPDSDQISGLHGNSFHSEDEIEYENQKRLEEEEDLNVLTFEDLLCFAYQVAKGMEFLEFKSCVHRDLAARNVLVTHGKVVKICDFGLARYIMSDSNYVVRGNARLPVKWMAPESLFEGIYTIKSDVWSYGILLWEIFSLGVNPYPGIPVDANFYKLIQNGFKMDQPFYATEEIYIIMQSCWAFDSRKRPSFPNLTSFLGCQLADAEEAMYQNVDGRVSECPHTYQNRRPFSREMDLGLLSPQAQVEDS
Excerpt: (§1) The viability of Flt3 expressing cells can be evaluated using a tetrazolium salt reduction cell-based assay. […] BaF3, both wild type and mutant, as well as transfected strains, MV4-11 and MOLM14 are well-characterized Flt3-dependent humanized or human cell lines which express active Flt3 receptors (see, Yee et al. Blood (2002)100 (8):2941-2949; Levis et al. (2002) 99(11): 3885-3891). These cell lines were used to determine the ability of the compounds provided herein to inhibit Flt3 in intact cells. In each case, and by methods known to those practiced in the art of cell culture, proliferation was measured after 72 hour incubation with the compounds provided herein using a standard MTS protocol (Promega Cat #5430 “Cell Titer 96 Aqueous Non-radioactive Cell Proliferation Assay”).
(§2) In general, cells were plated at 10,000-20,000 cells per well in DMEM medium with 0.5% serum. The compound plate was set up by aliquoting into column 1 of a 96 well 300 ul polypropylene plate, the negative control (DMSO), aliquoting into column 12 the positive control and titrating the test compound in serial dilutions into columns 2-1 l. An aliquot from each well of the compound plate was transferred to the plated cells and then incubated @ […] in 5% CO2. [00538] MTS tetrazolium compound (Owen's reagent) was thawed in a H2O bath. 20 μl of MTS tetrazolium was added to each well of optical plate and the cells were incubated @ 37° C. in 5% CO2 for 2 hours. The absorbance measured at 490 nm using a microplate reader.

BaF3-FLT3-WT + IL-3 = settings: 72 hour incubation, read-out: Growth inhibitory activity (in vivo EC50 nM)
Excerpt: as §1, §2

BaF3-ITD = target: T2, BaF3-ITD (Homo sapiens, UniProt P36888, cells depend on it, form not given); settings: 72 hour incubation, read-out: Growth inhibitory activity (in vivo EC50 nM)
T2 sequence (P36888 1-993): T1 sequence (P36888 1-993 D835Y) with Y835D
Excerpt: as §1, §2

MOLM14 = settings: Homo sapiens, MOLM-14, 72 hour incubation, read-out: Growth inhibitory activity (in vivo EC50 nM)
Excerpt: as §1, §2

Row | SMILES | EC50 (BaF3-D835Y) | IC50 (BaF3-FLT3-WT + IL-3) | EC50 (BaF3-ITD) | EC50 (MOLM14)
1 | CNc1ccc2ncn3c4ccc5[nH]ncc5c4c(=O)c1c23 [(VII)] | 158 nM | 356 nM | 36 nM | 60 nM
2 | CCN(CC)c1ccc2ncn3c4ccc5[nH]ncc5c4c(=O)c1c23 [(VI)] | 171 nM | 1390 nM | 74 nM | 84 nM
3 | CCN(CC)CCNc1ccc2ncn3c4ccc(O)cc4c(=O)c1c23 [Symadex, 5-(2-(diethylamino)ethylamino)-8-hydroxy-6H-imidazo[4,5,1-de]acridin-6-one, reference compound] | 8.9 nM | 13.2 nM | 11.2 nM | –
4 | CCN(CC)CCNc1ccc2ncn3c4ccc5[nH]ncc5c4c(=O)c1c23 [(VIII)] | 129 nM | 341 nM | 30 nM | 627 nM
5 | CN(C)CCCNc1ccc2ncn3c4ccc5[nH]ncc5c4c(=O)c1c23 [Compound (IV)] | 13 nM | 6 nM | 20 nM | –
6 | CN(C)CCCCCNc1ccc2ncn3c4ccc5[nH]ncc5c4c(=O)c1c23 [(III)] | 887 nM | 752 nM | 223 nM | –
7 | CN(C)c1ccc2ncn3c4ccc5[nH]ncc5c4c(=O)c1c23 [(IX)] | 723 nM | > 2000 nM | 80 nM | 82 nM
8 | O=c1c2c(NCCCN3CCOCC3)ccc3ncn(c4ccc5[nH]ncc5c14)c32 [(X)] | 79 nM | 492 nM | 35 nM | 90 nM
9 | O=c1c2c(NCCN3CCOCC3)ccc3ncn(c4ccc5[nH]ncc5c14)c32 [Compound (V)] | 172 nM | 246 nM | 90 nM | 333 nM
